Patent publication US20250381168A1, “VLA4 INHIBITORS AND USES THEREOF” (Washington University, priority 2022, published 2025)
Like-named read-outs stand apart in the source and are kept apart here. One block for each compound: values may come before it.

Assays:
[1] = system: hematopoietic stem/progenitor cells (HSPCs); assay: HSPC mobilization into peripheral blood, colony forming unit (CFU) assay; details: mice
VLA-4 (a4b1) = VLA-4 (a4b1) (Homo sapiens (Human), UniProt P05556+P13612); assay: sVCAM flow cytometry cell-based assay (inhibition of soluble VCAM-1 binding to G2 ALL cells);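 also: compounds at 0.1 to 1000 nM preincubated 30 min with G2 ALL cells, then VCAM/Fc added for 30 min, bound VCAM-1 detected by PE secondary antibody, percent binding cells by flow cytometry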
VLA-4 (a4b1), sequence (P13612 34-1032): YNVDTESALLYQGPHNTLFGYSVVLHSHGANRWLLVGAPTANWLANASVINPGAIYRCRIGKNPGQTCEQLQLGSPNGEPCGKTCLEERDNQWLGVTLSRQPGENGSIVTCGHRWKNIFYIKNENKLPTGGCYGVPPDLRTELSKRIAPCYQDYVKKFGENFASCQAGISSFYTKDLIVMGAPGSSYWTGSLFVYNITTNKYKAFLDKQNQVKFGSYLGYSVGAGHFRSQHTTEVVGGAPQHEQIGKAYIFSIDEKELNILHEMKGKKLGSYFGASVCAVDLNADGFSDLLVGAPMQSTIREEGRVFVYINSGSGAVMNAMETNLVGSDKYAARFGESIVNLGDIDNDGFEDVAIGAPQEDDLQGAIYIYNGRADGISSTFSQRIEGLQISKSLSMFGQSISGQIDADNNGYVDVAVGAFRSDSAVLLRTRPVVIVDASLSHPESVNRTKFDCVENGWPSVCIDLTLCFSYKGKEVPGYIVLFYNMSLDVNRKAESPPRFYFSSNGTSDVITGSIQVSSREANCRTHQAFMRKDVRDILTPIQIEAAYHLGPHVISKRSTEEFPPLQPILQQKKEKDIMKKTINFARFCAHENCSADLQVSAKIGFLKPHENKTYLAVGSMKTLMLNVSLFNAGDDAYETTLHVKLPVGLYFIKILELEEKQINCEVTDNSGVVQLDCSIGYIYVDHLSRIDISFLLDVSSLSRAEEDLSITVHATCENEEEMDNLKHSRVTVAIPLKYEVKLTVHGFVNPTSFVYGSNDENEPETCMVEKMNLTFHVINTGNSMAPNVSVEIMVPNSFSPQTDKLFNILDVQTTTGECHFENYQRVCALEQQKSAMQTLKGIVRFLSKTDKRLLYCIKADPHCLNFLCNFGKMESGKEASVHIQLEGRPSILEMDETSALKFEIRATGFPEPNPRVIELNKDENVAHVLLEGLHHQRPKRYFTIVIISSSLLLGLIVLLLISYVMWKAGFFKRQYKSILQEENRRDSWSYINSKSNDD
VLA-4 (a4b1), sequence (P05556 21-798): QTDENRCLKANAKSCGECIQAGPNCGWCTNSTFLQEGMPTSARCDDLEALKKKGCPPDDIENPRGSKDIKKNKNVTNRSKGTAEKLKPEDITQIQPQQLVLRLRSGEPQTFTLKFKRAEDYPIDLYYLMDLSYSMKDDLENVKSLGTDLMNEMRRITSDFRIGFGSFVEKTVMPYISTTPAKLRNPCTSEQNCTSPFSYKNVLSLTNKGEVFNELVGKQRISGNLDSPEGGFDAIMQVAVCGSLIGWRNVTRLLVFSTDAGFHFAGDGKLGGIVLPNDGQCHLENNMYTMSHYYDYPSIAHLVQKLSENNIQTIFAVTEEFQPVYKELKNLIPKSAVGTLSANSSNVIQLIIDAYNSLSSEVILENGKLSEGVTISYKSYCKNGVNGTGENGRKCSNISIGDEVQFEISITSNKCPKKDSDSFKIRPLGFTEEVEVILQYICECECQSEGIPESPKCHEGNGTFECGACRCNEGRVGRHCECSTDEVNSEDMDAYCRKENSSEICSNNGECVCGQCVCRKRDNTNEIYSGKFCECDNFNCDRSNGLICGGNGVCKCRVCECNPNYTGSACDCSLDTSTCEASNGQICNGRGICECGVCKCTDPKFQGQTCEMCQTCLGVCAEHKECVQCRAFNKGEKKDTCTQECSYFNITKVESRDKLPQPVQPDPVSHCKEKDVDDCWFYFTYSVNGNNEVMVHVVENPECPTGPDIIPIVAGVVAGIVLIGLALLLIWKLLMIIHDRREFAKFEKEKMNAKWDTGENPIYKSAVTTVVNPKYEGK
Description: VLA-4 (a4b1) inhibitor compounds were tested for their ability to inhibit the binding of soluble VCAM-1 to human G2 acute lymphoblastic leukemia (ALL) cells. Briefly, G2 ALL cells are pre-incubated with increasing concentrations (0.1 to 1000 nM) of compounds for 30 minutes. Soluble VCAM/Fc chimera protein (R & D systems) is then added to the mixture and the cells incubated for an additional 30 minutes. Afterwards, cells are washed and VCAM-1 is detected using a PE-conjugated secondary polyclonal antibody. In each experiment, an aliquot of cells are stained with isotype control antibodies to serve as a negative control. The percentage of VCAM-1 binding cells was then determined by flow cytometry.

integrin a4b7 = integrin a4b7 (Homo sapiens (Human), UniProt P13612+P26010); assay: a4b7 solid phase receptor assay (SPRA); details: recombinant human a4b7 binding to plate-coated human VCAM1 (TABLE 4)
integrin a4b7, sequence (P13612 34-970): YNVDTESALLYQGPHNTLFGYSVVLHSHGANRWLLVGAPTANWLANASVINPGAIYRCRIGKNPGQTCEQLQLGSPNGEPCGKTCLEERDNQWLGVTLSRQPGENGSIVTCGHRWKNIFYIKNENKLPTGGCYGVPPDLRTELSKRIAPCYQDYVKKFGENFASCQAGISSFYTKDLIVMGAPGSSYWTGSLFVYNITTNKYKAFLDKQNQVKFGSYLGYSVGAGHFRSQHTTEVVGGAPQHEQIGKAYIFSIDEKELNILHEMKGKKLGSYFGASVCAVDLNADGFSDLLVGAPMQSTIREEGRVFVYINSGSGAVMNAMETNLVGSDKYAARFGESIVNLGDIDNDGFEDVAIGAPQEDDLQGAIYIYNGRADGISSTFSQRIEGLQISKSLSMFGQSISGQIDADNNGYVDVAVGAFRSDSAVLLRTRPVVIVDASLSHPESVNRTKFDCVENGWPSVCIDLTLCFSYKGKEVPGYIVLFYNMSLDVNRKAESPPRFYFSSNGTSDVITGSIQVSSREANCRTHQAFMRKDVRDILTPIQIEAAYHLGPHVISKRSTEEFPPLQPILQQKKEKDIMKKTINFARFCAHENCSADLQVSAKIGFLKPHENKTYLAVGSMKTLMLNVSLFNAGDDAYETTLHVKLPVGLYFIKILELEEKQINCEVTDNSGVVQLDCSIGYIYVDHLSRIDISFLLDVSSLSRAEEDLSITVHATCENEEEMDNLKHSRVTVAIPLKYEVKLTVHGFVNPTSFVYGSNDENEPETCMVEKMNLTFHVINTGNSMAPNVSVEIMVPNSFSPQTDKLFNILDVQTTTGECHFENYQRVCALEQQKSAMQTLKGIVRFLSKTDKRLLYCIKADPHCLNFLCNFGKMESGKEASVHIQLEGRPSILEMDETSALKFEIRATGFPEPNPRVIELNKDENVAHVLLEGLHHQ
integrin a4b7, sequence (P26010 20-723): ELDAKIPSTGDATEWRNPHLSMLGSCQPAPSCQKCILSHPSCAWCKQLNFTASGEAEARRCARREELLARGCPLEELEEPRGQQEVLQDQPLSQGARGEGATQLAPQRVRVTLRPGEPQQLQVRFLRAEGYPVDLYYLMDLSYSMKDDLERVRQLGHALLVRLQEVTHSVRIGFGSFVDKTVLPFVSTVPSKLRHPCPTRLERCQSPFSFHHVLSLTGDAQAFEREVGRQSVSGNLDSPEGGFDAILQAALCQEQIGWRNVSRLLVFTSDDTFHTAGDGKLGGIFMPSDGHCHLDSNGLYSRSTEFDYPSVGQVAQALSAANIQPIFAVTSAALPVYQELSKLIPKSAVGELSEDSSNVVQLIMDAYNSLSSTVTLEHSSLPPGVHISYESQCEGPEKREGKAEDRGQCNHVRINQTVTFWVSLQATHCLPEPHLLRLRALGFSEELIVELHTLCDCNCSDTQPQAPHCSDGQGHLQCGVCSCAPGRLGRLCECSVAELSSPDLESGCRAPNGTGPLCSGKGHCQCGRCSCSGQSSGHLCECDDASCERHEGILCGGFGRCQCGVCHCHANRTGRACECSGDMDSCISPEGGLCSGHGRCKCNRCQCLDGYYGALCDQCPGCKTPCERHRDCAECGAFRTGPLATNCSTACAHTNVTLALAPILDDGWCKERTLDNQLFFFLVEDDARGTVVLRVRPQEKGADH
Description: Wells were washed 3 times with TBS+ and blocking buffer (TBS+ with 1% bovine serum albumin), the plate was incubated for 1 hr at 37° C., and then washed 3× with TBS+ buffer. Recombinant human a4b7 (R & D Systems) was diluted to 1 μg/ml in TBS+/0.1% bovine serum albumin. Test compounds were diluted into the integrin solution and added to the washed ligand-coated plate according to a standard template with each sample repeated in triplicate. After incubation for 2 hr at room temperature, the plate was washed 3× with 150 μl of TBS+ buffer. To each well, biotinylated anti-A4 antibody (R & D Systems) at 1 μg/ml in TBS+/0.1% BSA was added and the plate covered and incubated for 1 hr at room temperature. After washing the plate 3× with TBS+ buffer, streptavidin-conjugated horseradish peroxidase (R & D Systems) diluted in TBS+ blocking buffer was added to the wells and the plate incubated for 20 min at room temperature. The plate was washed 3× with TBS+ buffer followed by addition of 50 μl of TMB substrate (Sigma T4444). After incubation for 20 min at room temperature, plates were stopped with TMB stop solution (Sigma S5689) by colorimetric detection at 450 nm wavelength using a Tecan Safire II plate reader.

[2] = single dose, peripheral blood, 2 hr post dose (TABLE 9)
[3] = single dose, peripheral blood, 2 hr post dose (TABLE 10)
[4] = single dose, peripheral blood, 4 hr post dose (TABLE 9)
[5] = single dose, peripheral blood, 4 hr post dose (TABLE 10)
[6] = single dose, peripheral blood, 6 hr post dose (TABLE 9)
[7] = single dose, peripheral blood, 6 hr post dose (TABLE 10)
[8] = as listed in TABLE 9, read-out: sVCAM IC50
[9] = as listed in TABLE 10, read-out: sVCAM IC50
[10] = inhibition of sVCAM-1 binding to human G2 ALL cells (TABLE 3), read-out: SVCAM-1, IC50

Structure (SMILES): COCCOCCOCCOCCOCCOCCOCCOCCOCCOCCOCCOCCOCCOCCOCCOCCOCCOCCOCCOCCOCCOCCOCCOCCOCc1cc(OC)c(-c2ccc(C[C@H](NC(=O)[C@@H]3CCCN3S(=O)(=O)c3cc(Cl)cc(Cl)c3)C(=O)O)cc2)c(OC)c1 [Example 1]
- HSPC mobilization in the triple combination regimen with plerixafor and truncated Groβ [1]: high degree of extended mobilization
- No. CFU (×10^3)/mL ± SD, 2 hr ([1]; alone or in combination with Plerixafor and tGroβ, peripheral blood, 2 hr (TABLE 17)): 5.69 ± 2.57 (×10^3)/mL
- No. CFU (×10^3)/mL ± SD, 4 hr ([1]; alone or in combination with Plerixafor and tGroβ, peripheral blood, 4 hr (TABLE 17)): 4.82 ± 1.07 (×10^3)/mL
- No. CFU (×10^3)/mL ± SD, 6 hr ([1]; alone or in combination with Plerixafor and tGroβ, peripheral blood, 6 hr (TABLE 17)): 2.97 ± 0.65 (×10^3)/mL
- HSPC mobilization, result in words ([1]; single dose): significant HSPC mobilization at 4 hours
- No. CFU (×10^3)/mL ± SD, 2 hr ([1]; single dose alone or in combination with AMD3100 (5 mg/kg s.c.), peripheral blood, 2 hr (TABLE 14)): 5.94 ± 4.52 (×10^3)/mL
- No. CFU (×10^3)/mL ± SD, 3 hr ([1]; single dose alone or in combination with AMD3100 (5 mg/kg s.c.), peripheral blood, 3 hr (TABLE 14)): 6.42 ± 4.64 (×10^3)/mL
- No. CFU (×10^3)/mL ± SD, 5 hr ([1]; single dose alone or in combination with AMD3100 (5 mg/kg s.c.), peripheral blood, 5 hr (TABLE 14)): 5.02 ± 1.67 (×10^3)/mL
- No. CFU (x10^3)/mL ± SD, 4 hr ([1]; single dose alone or in combination with Plerixafor (5 mg/kg s.c.), peripheral blood, 4 hr (TABLE 15)): 2.65 ± 1.15 (x10^3)/mL
- No. CFU (x10^3)/mL ± SD, 6 hr ([1]; single dose alone or in combination with Plerixafor (5 mg/kg s.c.), peripheral blood, 6 hr (TABLE 15)): 1.43 ± 0.56 (x10^3)/mL
- No. CFU (x10^3)/mL ± SD, 24 hr ([1]; single dose alone or in combination with Plerixafor (5 mg/kg s.c.), peripheral blood, 24 hr (TABLE 15)): 0.22 ± 0.10 (x10^3)/mL
- effect on extended HSPC mobilization in combination with a single dose of the CXCR4 inhibitor AMD3100 (Plerixafor) ([1]; single dose of each agent): synergistic effects
- No. CFU (×10^3)/mL ± SD, 0.25 hr ([1]; single dose, peripheral blood, 0.25 hr post dose (TABLE 8)): 4.10 ± 1.53 (×10^3)/mL
- No. CFU (×10^3)/mL ± SD, 0.5 hr ([1]; single dose, peripheral blood, 0.5 hr post dose (TABLE 7)): 1.22 ± 0.35 (×10^3)/mL
- No. CFU (×10^3)/mL ± SD, 2 hr ([1]; single dose, peripheral blood, 2 hr post dose (TABLE 7)): 2.12 ± 1.04 (×10^3)/mL
- No. CFU (×10^3)/mL ± SD, 2 hr ([1]; single dose, peripheral blood, 2 hr post dose (TABLE 8)): 4.79 ± 2.05 (×10^3)/mL
- No. CFU (×10^3)/mL ± SD, 2 hr [1, 2]: 4.72 ± 1.19 (×10^3)/mL
- No. CFU (×10^3)/mL ± SD, 2 hr [1, 3]: 4.18 ± 1.99 (×10^3)/mL
- No. CFU (x10^3)/mL ± SD, 2 hr ([1]; single dose, peripheral blood, 2 hr post dose (TABLE 11)): 3.14 ± 0.63 (x10^3)/mL
- No. CFU (×10^3)/mL ± SD, 4 hr ([1]; single dose, peripheral blood, 4 hr post dose (TABLE 7)): 2.30 ± 0.25 (×10^3)/mL
- No. CFU (×10^3)/mL ± SD, 4 hr ([1]; single dose, peripheral blood, 4 hr post dose (TABLE 8)): 4.43 ± 0.66 (×10^3)/mL
- No. CFU (×10^3)/mL ± SD, 4 hr [1, 4]: 5.00 ± 1.26 (×10^3)/mL
- No. CFU (×10^3)/mL ± SD, 4 hr [1, 5]: 4.41 ± 0.89 (×10^3)/mL
- No. CFU (x10^3)/mL ± SD, 4 hr ([1]; single dose, peripheral blood, 4 hr post dose (TABLE 11)): 4.14 ± 1.31 (x10^3)/mL
- No. CFU (×10^3)/mL ± SD, 4 hr ([1]; single dose, peripheral blood, 4 hr post dose (TABLE 18)): 5.18 ± 1.99 (×10^3)/mL
- No. CFU (×10^3)/mL ± SD, 6 hr [1, 6]: 1.84 ± 0.63 (×10^3)/mL
- No. CFU (×10^3)/mL ± SD, 6 hr [1, 7]: 1.78 ± 0.38 (×10^3)/mL
- No. CFU (x10^3)/mL ± SD, 6 hr ([1]; single dose, peripheral blood, 6 hr post dose (TABLE 11)): 2.20 ± 0.63 (x10^3)/mL
- No. CFU (×10^3)/mL ± SD, 8 hr ([1]; single dose, peripheral blood, 8 hr post dose (TABLE 18)): 2.00 ± 0.66 (×10^3)/mL
- No. CFU (x10^3)/mL ± SD, 24 hr ([1]; single dose, peripheral blood, 24 hr post dose (TABLE 11)): 0.29 ± 0.11 (x10^3)/mL
- No. CFU (×10^3)/mL ± SD, 24 hr ([1]; single dose, peripheral blood, 24 hr post dose (TABLE 18)): 0.46 ± 0.30 (×10^3)/mL
- No. CFU (x10^3)/mL ± SD, 2 hr ([1]; single injection, peripheral blood, 2 hr post dose (TABLE 12)): 4.72 ± 0.33 (x10^3)/mL
- No. CFU (x10^3)/mL ± SD, 4 hr ([1]; single injection, peripheral blood, 4 hr post dose (TABLE 12)): 3.38 ± 0.21 (x10^3)/mL
- No. CFU (x10^3)/mL ± SD, 6 hr ([1]; single injection, peripheral blood, 6 hr post dose (TABLE 12)): 2.87 ± 0.39 (x10^3)/mL
- No. CFU (x10^3)/mL ± SD, 8 hr ([1]; single injection, peripheral blood, 8 hr post dose (TABLE 12)): 1.12 ± 0.48 (x10^3)/mL
- IC50 (VLA-4 (a4b1); as listed in TABLE 7, read-out: sVCAM IC50): 0.373 nM
- IC50 (VLA-4 (a4b1); as listed in TABLE 8, read-out: sVCAM IC50): 0.373 nM
- IC50 (VLA-4 (a4b1); [8]): 0.373 nM
- IC50 (VLA-4 (a4b1); [9]): 0.373 nM
- IC50 (VLA-4 (a4b1); as listed in TABLE 11, read-out: sVCAM IC50): 0.373 nM
- IC50 (VLA-4 (a4b1); as listed in TABLE 12, read-out: sVCAM IC50): 0.373 nM
- IC50 (VLA-4 (a4b1); as listed in TABLE 14, read-out: sVCAM IC50): 0.373 nM
- IC50 (VLA-4 (a4b1); as listed in TABLE 15, read-out: sVCAM IC50): 0.373 nM
- IC50 (VLA-4 (a4b1); as listed in TABLE 17, read-out: sVCAM IC50): 0.373 nM
- IC50 (VLA-4 (a4b1); as listed in TABLE 18, read-out: sVCAM IC50): 0.373 nM
- IC50 (VLA-4 (a4b1); [10]): 0.373 nM
- IC50 (integrin a4b7): 5.6 nM

- IC50 (VLA-4 (a4b1); [8]): 0.833 nM
- IC50 (VLA-4 (a4b1); [9]): 0.833 nM
- IC50 (VLA-4 (a4b1); [10]): 0.833 nM
- IC50 (integrin a4b7): 5.4 nM
Structure (SMILES): COCCOCCOCCOCCOCCOCCOCCOCCOCCOCCOCCOCCOCCOCCOCCOCCOCCOCCOCCOCCOCCOCCOCCOCCOCCOCCOCCOCCOCCOCCOCCOCCOCCOCCOCCOCCOCc1cc(OC)c(-c2ccc(C[C@H](NC(=O)[C@@H]3CCCN3S(=O)(=O)c3cc(Cl)cc(Cl)c3)C(=O)O)cc2)c(OC)c1 [Example 2]
- No. CFU (×10^3)/mL ± SD, 2 hr [1, 2]: 4.10 ± 1.40 (×10^3)/mL
- No. CFU (×10^3)/mL ± SD, 2 hr [1, 3]: 4.42 ± 1.41 (×10^3)/mL
- No. CFU (×10^3)/mL ± SD, 4 hr [1, 4]: 4.98 ± 1.88 (×10^3)/mL
- No. CFU (×10^3)/mL ± SD, 4 hr [1, 5]: 3.59 ± 0.93 (×10^3)/mL
- No. CFU (×10^3)/mL ± SD, 6 hr [1, 6]: 1.87 ± 0.58 (×10^3)/mL
- No. CFU (×10^3)/mL ± SD, 6 hr [1, 7]: 2.12 ± 0.84 (×10^3)/mL
